Reference: ChEMBL document CHEMBL1154938 (Bioorg Med Chem Lett, 2010)

Assays:
[1] = system: Human immunodeficiency virus 1; assay: Antiviral activity against CCR5-tropic recombinant HIV1 NLBal virus infected in JC53-BL cells assessed as inhibition of viral replication after 3 days by luciferase reporter gene assay; format: functional, organism-based; conditions: Human immunodeficiency virus 1, NLBal, JC53BL, 72 h
[2] = target: C-C chemokine receptor type 5 (Homo sapiens, UniProt P51681); assay: Displacement of […] from human CCR5 receptor coexpressed with Galphai6 in CHO cells after 2 hrs by scintillation counting; format: cell-based
Sequence of C-C chemokine receptor type 5 (P51681 whole entry): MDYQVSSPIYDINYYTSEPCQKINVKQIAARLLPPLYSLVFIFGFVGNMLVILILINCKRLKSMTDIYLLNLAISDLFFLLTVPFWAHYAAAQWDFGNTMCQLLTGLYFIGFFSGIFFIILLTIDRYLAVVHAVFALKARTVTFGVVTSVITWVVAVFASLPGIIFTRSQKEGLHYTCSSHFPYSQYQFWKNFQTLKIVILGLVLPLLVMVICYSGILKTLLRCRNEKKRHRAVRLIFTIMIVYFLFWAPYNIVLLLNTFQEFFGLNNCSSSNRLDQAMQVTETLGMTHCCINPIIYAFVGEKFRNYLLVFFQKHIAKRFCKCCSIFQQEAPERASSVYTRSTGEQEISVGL

| SMILES | IC50 [1] | IC50 [2] |
| --- | --- | --- |
| Cc1nnc(C)n1C1CCN(CC[C@H](NC(=O)C2CCOC2)c2cccc(F)c2)CC1 (some centres not stated) | ≥ 625 nM |  |
| Cc1nnc(C)n1[C@H]1C[C@@H]2CN(CC[C@H](NC(=O)C3CC(F)(F)C3)c3cccc(F)c3)C[C@@H]2C1 | 200 nM | 6 nM |
| Cc1nnc(C)n1[C@H]1C[C@@H]2CN(CC[C@H](NC(=O)C3CCOCC3)c3cccc(F)c3)C[C@@H]2C1 | ≥ 625 nM | 43 nM |
| Cc1nnc(C)n1[C@H]1C[C@@H]2CN(CC[C@H](NC(=O)C3CCC(F)(F)CC3)c3cccc(F)c3)C[C@@H]2C1 | 81 nM |  |
| Cc1nnc(C)n1[C@@H]1C[C@@H]2CN(CC[C@H](NC(=O)C3CCOC3)c3cccc(F)c3)C[C@@H]2C1 (some centres not stated) | 210 nM | 18 nM |
| Cc1nnc(C)n1[C@H]1C[C@@H]2CN(CC[C@H](NC(=O)C3CCOC3)c3cccc(F)c3)C[C@@H]2C1 (some centres not stated) | 40 nM | 35 nM |
| Cc1nnc(C)n1[C@@H]1C[C@@H]2CN(CC[C@H](NC(=O)C3CC(F)(F)C3)c3cccc(F)c3)C[C@@H]2C1 | 74 nM | 6 nM |
| Cc1nnc(C)n1[C@@H]1C[C@@H]2CN(CC[C@H](NC(=O)C3CCOCC3)c3cccc(F)c3)C[C@@H]2C1 | ≥ 625 nM | 30 nM |
| Cc1nnc(C)n1[C@@H]1C[C@@H]2CN(CC[C@H](NC(=O)C3CCC(F)(F)CC3)c3cccc(F)c3)C[C@@H]2C1 | 41 nM | 8 nM |
| Cc1nnc(C)n1[C@H]1C[C@H]2CC[C@@H](C1)N2CC[C@H](NC(=O)C1CCOCC1)c1cccc(F)c1 | 220 nM | 13 nM |
| Cc1nnc(C)n1[C@H]1C[C@H]2CC[C@@H](C1)N2CC[C@H](NC(=O)C1CCC(F)(F)CC1)c1cccc(F)c1 | 5 nM | 5 nM |
| Cc1nnc(C)n1C1CCN(CC[C@H](NC(=O)C2CCC(F)(F)CC2)c2cccc(F)c2)CC1 | ≥ 625 nM | 38 nM |
| Cc1nnc(C)n1[C@H]1C[C@H]2CC[C@@H](C1)N2CC[C@H](NC(=O)C1CCOC1)c1cccc(F)c1 (some centres not stated) | 62 nM | 7 nM |
| Cc1nnc(C)n1[C@H]1C[C@H]2CC[C@@H](C1)N2CC[C@H](NC(=O)C1CC(F)(F)C1)c1cccc(F)c1 | 24 nM | 5 nM |
| Cc1nnc(C(C)C)n1[C@H]1C[C@H]2CC[C@@H](C1)N2CC[C@H](NC(=O)C1CCC(F)(F)CC1)c1ccccc1 [MARAVIROC] | 2.8 nM |  |
